Patent publication US20100056524A1, “Compound” (priority 2008, published 2010)

The compounds below were run against T1, TBK1 (Homo sapiens, UniProt Q9UHD2) (assay: TBK1 protein kinase assay ([γ-33P]ATP, P81 filterplates)). Conditions: 50 μM ATP; read-out: Potency (TBK1 IC50 potency score).
T1 construct: All protein kinases were of human origin and encoded full length proteins, unless indicated otherwise; His6; made in house; host or cells: insect Sf21 cells
T1 sequence (Q9UHD2 1-729): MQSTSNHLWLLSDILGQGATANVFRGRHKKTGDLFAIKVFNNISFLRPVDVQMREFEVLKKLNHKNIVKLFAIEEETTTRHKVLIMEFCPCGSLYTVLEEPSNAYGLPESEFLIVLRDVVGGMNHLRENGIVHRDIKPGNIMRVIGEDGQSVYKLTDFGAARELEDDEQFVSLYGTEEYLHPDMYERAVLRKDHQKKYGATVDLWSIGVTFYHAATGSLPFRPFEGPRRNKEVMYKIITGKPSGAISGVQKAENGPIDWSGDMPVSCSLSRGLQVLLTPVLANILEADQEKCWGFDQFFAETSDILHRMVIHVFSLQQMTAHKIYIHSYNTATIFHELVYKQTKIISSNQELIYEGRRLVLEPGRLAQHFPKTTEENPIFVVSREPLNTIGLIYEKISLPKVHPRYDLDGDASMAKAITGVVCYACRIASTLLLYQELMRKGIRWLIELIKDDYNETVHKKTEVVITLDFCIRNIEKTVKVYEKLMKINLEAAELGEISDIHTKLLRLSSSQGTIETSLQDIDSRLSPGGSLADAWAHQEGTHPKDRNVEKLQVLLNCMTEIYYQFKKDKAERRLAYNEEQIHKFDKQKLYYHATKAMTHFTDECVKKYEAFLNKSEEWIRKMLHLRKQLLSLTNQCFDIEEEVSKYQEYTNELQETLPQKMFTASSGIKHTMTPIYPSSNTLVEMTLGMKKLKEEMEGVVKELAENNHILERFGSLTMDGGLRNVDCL
Format: biochemical
Procedure, shortened: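 Human TBK1 assayed for 30 min with peptide substrate (300 μM), 50 μM [γ-33P]ATP and 10 mM magnesium acetate in 50 mM Tris/HCl pH 7.5, 0.1 mM EGTA, 0.1% 2-mercaptoethanol. Stopped with orthophosphoric acid and counted on P81 filters. IC50 from 10 compound concentrations.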

Row | Compound | IC50
1 | CC(C)(C)N1CCC(n2cc(Nc3ncc(C4CC4)c(NCCCNC(=O)C4CCC4)n3)cn2)CC1 [Example 205, Cyclobutanecarboxylic acid (3-{2-[1-(1-tert-butyl-piperidin-4-yl)-1H-pyrazol-4-ylamino]-5-cyclopropyl-pyrimidin-4-ylamino}-propyl)-amide] | < 0.1 µM
2 | O=C(NCCCNc1nc(Nc2ccc(N3CCN(C4CC4)CC3)nc2)ncc1C1CC1)C1CCC1 [Example 206, Cyclobutanecarboxylic acid (3-{5-cyclopropyl-2-[6-(4-cyclopropyl-piperazin-1-yl)-pyridin-3-ylamino]-pyrimidin-4-ylamino}-propyl)-amide] | < 0.1 µM
3 | O=C(NCCCNc1nc(Nc2ccc(NC3CCOCC3)nc2)ncc1C1CC1)C1CCC1 [Example 207, Cyclobutanecarboxylic acid (3-{5-cyclopropyl-2-[6-(tetrahydro-pyran-4-ylamino)-pyridin-3-ylamino]-pyrimidin-4-ylamino}-propyl)-amide] | < 0.1 µM
4 | O=C(NCCCNc1nc(Nc2ccc(C3CC3)nc2)ncc1C1CC1)C1CCC1 [Example 208, Cyclobutanecarboxylic acid {3-[5-cyclopropyl-2-(6-cyclopropyl-pyridin-3-ylamino)-pyrimidin-4-ylamino]-propyl}-amide] | < 0.1 µM
5 | Cc1nc2ccc(Nc3ncc(C4CC4)c(NCCCNC(=O)C4CCC4)n3)cc2[nH]1 [Example 209, Cyclobutanecarboxylicacid{3-[5-cyclopropyl-2-(2-methyl-3H-benzimidazol-5-ylamino)-pyrimidin-4-ylamino]-propyl}-amide] | < 0.1 µM

Results, then the compound that gave them:

Row | IC50 | Compound
6 | < 0.1 µM | O=C(NCCCNc1nc(Nc2ccc3c(cnn3C3CC3)c2)ncc1C1CC1)C1CCC1 [Example 210, Cyclobutanecarboxylicacid{3-[5-cyclopropyl-2-(1-cyclopropyl-1H-indazol-5-ylamino)-pyrimidin-4-ylamino]-propyl}-amide]
7 | < 0.1 µM | O=C(NCCCNc1nc(Nc2ccc3cnn(C4CC4)c3c2)ncc1C1CC1)C1CCC1 [Example 211, Cyclobutanecarboxylicacid{3-[5-cyclopropyl-2-(1-cyclopropyl-1H-indazol-6-ylamino)-pyrimidin-4-ylamino]-propyl}-amide]
8 | < 0.1 µM | O=C(NCCCNc1nc(Nc2ccc3c(cnn3CC3CC3)c2)ncc1C1CC1)C1CCC1 [Example 212, Cyclobutanecarboxylicacid{3-[5-cyclopropyl-2-(1-cyclopropylmethyl-1H-indazol-5-ylamino)-pyrimidin-4-ylamino]-propyl}-amide]
9 | < 0.1 µM | O=C(NCCCNc1nc(Nc2ccc3nn(CC4CC4)cc3c2)ncc1C1CC1)C1CCC1 [Example 213, Cyclobutanecarboxylicacid{3-[5-cyclopropyl-2-(2-cyclopropylmethyl-2H-indazol-5-ylamino)-pyrimidin-4-ylamino]-propyl}-amide]
10 | < 0.1 µM | O=C(NCCCNc1nc(Nc2ccc3[nH]nnc3c2)ncc1C1CC1)C1CCC1 [Example 214, Cyclobutanecarboxylicacid{3-[2-(1H-benzotriazol-5-ylamino)-5-cyclopropyl-pyrimidin-4-ylamino]-propyl}-amide]
